Data set [1] in a line: Example 2: maximum diurnal systolic blood pressure, combination with a β1-selective agent. Type of data set: in vivo, human. The following applies: person. An excerpt:
“Maximum diurnal” systolic or diastolic BP is a measure of highest systolic or diastolic blood pressure recorded in a 24-hour period. Without being bound by any particular theory, it is believed that a maximal diurnal BP reflects the peak of the natural diurnal blood pressure cycle, typically occurring in the morning, for example between about 5 am and about 11 am. Commonly, a second peak occurs in the evening, for example between about 5 pm and 10 pm. Such a bimodal waveform diurnal ambulatory BP pattern may be especially characteristic of resistant hypertension.
Effect of 50 mg Once Daily Dosage A2-73 Combination Treatment with a β1-Selective Agent.
The subject continues on the metoprolol tartrate, and is started on oral A2-73 at a daily dosage of 50 mg/day for a period of 25 days. Their maximum diurnal systolic blood pressure is then measured at 135 mg Hg and maintained indefinitely with the combined metoprolol tartrate and daily oral dose of 50 mg of A2-73.

The nature of data set [2]: Phase IIa clinical trial in Alzheimer's disease patients, post-hoc evaluation of systolic blood pressure. Format: in vivo, human. How it is done:
FIG. 1 is a graph of systolic blood pressure readings of 32 human patients of both sexes, across multiple visits, adjusted for time of BP measurement, gender, age, body mass index, and previous or concurrent use of antihypertensive medication.
BPs were measured at four time points during the study period: 1) the day of screening for enrollment, 2) day one of treatment with either oral or intravenous medication (BP measurements were obtained prior to medication administration), 3) day 25 of treatment (when patients crossed over to receive whichever formulation, oral or intravenous, they had not received previously), and 4) day 36 (conclusion of the PART A of the Phase IIa study). Statistical analyses included paired t-testing comparing changes in BPs across each measurement, as well as multivariable linear mixed effects modeling (adjusted for time of measurement, gender, age, body mass index, and use of antihypertensive medication) to account for within-individual repeated measurements over time.
Thirty-two Alzheimer's disease patients took part in the phase IIa trial. Mean age was 69.5 (standard deviation [SD] 9.8) years, 60% were male, mean body mass index was 26.5 (SD 3.9) kg/m2, and 50% were on antihypertensive medication at the time of screening. […] In multivariable adjusted models (FIG. 1), there was no significant difference in SBP between the first and second readings (p=0.211). […] Of note, no patients reported any changes in their antihypertensive regimen while taking part in the trial.

For data set [3] the following is noted: cited from earlier work.
Data set [4] can be described thus: Example 1: 24-hour ambulatory systolic blood pressure in a patient with high SBP. Format: in vivo, human. Particulars: person. How it is done:
Another measure of blood pressure is “24-hour ambulatory” blood pressure. A “24-hour ambulatory” systolic or diastolic BP is an average of systolic or diastolic measurements taken repeatedly in the course of a 24-hour period, in an ambulatory subject.
Effect of 5 mg and 30 mg Once Daily dosage A2-73.
The dose of A2-73 is then increased so that the subject is administered A2-73 daily, at a dosage of 30 mg/day for a period of 25 days. His 24-hour ambulatory systolic blood pressure is then measured at 135 mg Hg and maintained indefinitely with the daily oral dose of 30 mg of A2-73.

Data set [5] in a line: Example 3: trough systolic blood pressure, combination with a thiazine diuretic. Type of data set: in vivo, human. Particulars: person. How it is done:
Effect of 10 mg Once Daily Dosage A2-73 Combination Treatment with a Thiazine Diuretic.
The subject continues on the chlorothalidone and is started on oral A2-73 at a daily dosage of 10 mg/day for a period of 25 days. Their trough systolic blood pressure is then measured at 135 mg Hg and maintained indefinitely with the combined chlorothalidone and daily oral dose of 10 mg of A2-73.

[6] abbreviates: single oral dose, healthy male volunteers.

Structures can show the parent of a compound that is named as a salt.

As to `COCCc1ccc(OCC(O)CNC(C)C)cc1` (racemic) [metoprolol tartrate, (RS)-1-[4-(2-Methoxyethyl)phenoxy]-3-[(propan-2-yl)amino]propan-2-ol, reference compound], in data set [1] (metoprolol tartrate 50 mg twice daily, before A2-73), the “maximum diurnal systolic blood pressure” value is on record as 150 mg Hg.

Consider `CN(C)CC1CCOC1(c1ccccc1)c1ccccc1.Cl` (centres unmarked) [A2-73, tetrahydro-N,N-dimethyl-2,2-diphenyl-3-furanmethanamine hydrochloride], for which the “maximum diurnal systolic blood pressure” value in data set [1] (oral A2-73 50 mg/day for 25 days, combined with continued metoprolol tartrate 50 mg twice daily) turned out to be 135 mg Hg. Besides, the “tolerability in human patients” value in data set [2] (Phase I and Phase IIa clinical trials) was “well tolerated”. The “change in SBP, first reading vs other subsequent readings (day 25, day 36)” value in data set [2] (multivariable adjusted models (FIG. 1), p=0.048 and 0.008) is recorded as “significant decline in SBP”. In addition, the “change in SBP, second measurement (day one, pre-dose) vs all subsequent measurements” value in data set [2] (unadjusted analyses, p=0.120 and 0.972 (day 25, day 36)) is “no significant decline”. Besides, the “change in SBP, first measurement vs all subsequent measurements” value in data set [2] (unadjusted analyses, paired t-test, p=0.007, 0.001 and 0.007, 32 Alzheimer's disease patients, oral or intravenous) is listed as “significant decline in SBP”. The observed adverse events entry in data set [3] (at the highest doses) is “moderate and reversible dizziness and headache”. Besides, in data set [3] (in vivo, po), the “blood pressure, resting heart rate, vital signs and 12-lead ECG changes” value was “did not show any clinically relevant or dose-dependent changes”; the pharmacokinetics result was “suitable for daily oral dosing”. Besides, the serious adverse events entry in data set [3] (single ascending oral dose, 22 healthy male volunteers) is “No serious adverse events occurred”. Further, in data set [3] (setting [6]), the maximum tolerable dose is listed as 55 mg and the minimum intolerable dose is 60 mg. The “safety and tolerability of ascending single oral doses” value in data set [3] (single oral doses of 1, 10, 30, 40, 50 and 55 mg, healthy subjects) was “safe and well tolerated”. Besides, the “24-hour ambulatory systolic blood pressure” value in data set [4] (5 mg A2-73 orally once a day) is on record as 150 mg Hg. Also, in data set [4] (A2-73 30 mg/day oral for 25 days), the “24-hour ambulatory systolic blood pressure” value is 135 mg Hg. Moreover, in data set [5] (oral A2-73 10 mg/day for 25 days, combined with continued chlorothalidone 25 mg once a day), the “trough systolic blood pressure” value is 135 mg Hg.

With `NS(=O)(=O)c1cc(C2(O)NC(=O)c3ccccc32)ccc1Cl` (racemic) [chlorothalidone, (RS)-2-Chloro-5-(1-hydroxy-3-oxo-2,3-dihydro-1H-isoindol-1-yl)benzene-1-sulfonamide, reference compound], in data set [5] (chlorothalidone 25 mg orally once a day, before A2-73), the “trough systolic blood pressure” value came to 150 mg Hg.

(Values after patent US11622955B2, “Sigma-1 receptor agonist systolic blood pressure therapy” (ANAVEX LIFE SCIENCES CORP., priority 2017, dated 2023).)
